Common to all, as to assay: NCI anticancer screen, dose series, 48 h
Assay [1] relates to MDA-MB-231.
Assay [2] deals with HOP-92.
Assay [3] deals with SR.
In assay [4] the test system is HCT-116.
Assay [5] deals with Hs-578T.
Assay [6] relates to SW-620.
In assay [7] the test system is HT-29.
The test system of assay [8] is K562.
For assay [9], the system named is HCC 2998.
In assay [10] the test system is SNB-19.
Assay [11] relates to TK-10.
Assay [12] has as its system NCI-H460.
The test system of assay [13] is UO-31.
In assay [14] the test system is MDA-N.
The test system of assay [15] is RPMI-8226.
Assay [16] deals with IGROV-1.
For assay [17], the system named is OVCAR-8.
For assay [18], the system named is UACC-62.
For assay [19], the system named is CAKI-1.

Each structure is given as a SMILES string.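 All cell lines were grown in 96-well plates and treated with compound for 48 hours. GI50: concentration for 50% inhibition of growth.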 Active and inactive are the calls of the source. Rule as the data show it: active = GI50 up to about 1.1 µM and inactive = higher.

Regarding `O=C(O)CCC(=O)c1ccc2c(c1)C(C(=O)O)CC2` (stereo unspecified), the GI50 in assay [1] was > 100 µM (inactive); in assay [2] it was > 100 µM (inactive); in assay [3] it was > 100 µM (inactive); in assay [4], 0.0935 µM (active); in assay [5], > 100 µM (inactive); in assay [6] it was > 100 µM (inactive). The GI50 in assay [7], in [8], in assay [9], in assay [10], in assay [11] and in [12] was > 100 µM (inactive) throughout. The GI50 is > 100 µM (inactive) in assay [13]; > 100 µM (inactive) in assay [14]; > 100 µM (inactive) in assay [15]; > 100 µM (inactive) in assay [16]; 0.652 µM (active) in [17]; > 100 µM (inactive) in assay [18].

For `O=C(CC(=O)n1nc(-c2ccccc2)c(/N=N/c2ccc(Cl)cc2)c1-c1ccccc1)Nc1cccc(Cl)c1`, the GI50 is 54.7 µM (inactive) in assay [1]; > 100 µM (inactive) in assay [2]; 37.8 µM (inactive) in assay [3]; 61.7 µM (inactive) in assay [4]; > 100 µM (inactive) in assay [5]; > 100 µM (inactive) in [6]. The GI50 in assay [7] was 75.7 µM (inactive); in assay [8], 46.7 µM (inactive); in assay [9], > 100 µM (inactive); in [10], 41.1 µM (inactive); in assay [11], > 100 µM (inactive); in assay [12], 34.1 µM (inactive). Besides, the GI50 is 30.5 µM (inactive) in assay [13]; > 100 µM (inactive) in assay [14]; 65.6 µM (inactive) in assay [15]; 5.25 µM (inactive) in [16]; 81.1 µM (inactive) in [17]; 73.8 µM (inactive) in assay [18].

With `C[C@@H]1CC(=O)[C@@]2(C)[C@](O)(CCC3O[C@]32C)[C@@]12CC(c1ccoc1)OC2=O` (stereo partly specified), the GI50 in [1] is > 100 µM (inactive); in assay [3], 30.3 µM (inactive); in assay [4], 34.5 µM (inactive); in [5], 33.8 µM (inactive); in [6], 37.4 µM (inactive); in assay [7], 48.5 µM (inactive). Also, the GI50 in [8] is 39.1 µM (inactive); in assay [9], > 100 µM (inactive); in assay [19] it was 91 µM (inactive); in [10] it was > 100 µM (inactive); in [11] it was > 100 µM (inactive); in assay [12] it was 66.7 µM (inactive). The GI50 was > 100 µM (inactive) in assay [13]; 33.5 µM (inactive) in assay [14]; 33.3 µM (inactive) in assay [15]; > 100 µM (inactive) in assay [16]; > 100 µM (inactive) in [17]; 56.9 µM (inactive) in assay [18].

Regarding `CCOC(=O)c1cc(Br)c(-c2onc(C)c2Br)n1C`, the GI50 in assay [1] was 24.2 µM (inactive); in assay [3] it was 20.5 µM (inactive); in assay [4], 18.9 µM (inactive); in assay [5], 10.8 µM (inactive); in assay [6], 49.7 µM (inactive); in assay [8] it was 30.5 µM (inactive). Besides, the GI50 was 85.9 µM (inactive) in assay [9]; 12.8 µM (inactive) in assay [19]; 46.2 µM (inactive) in [10]; 66.8 µM (inactive) in assay [11]; 40 µM (inactive) in assay [12]; 45.9 µM (inactive) in assay [13]. Further, the GI50 in assay [14] was 43 µM (inactive); in assay [15], 55 µM (inactive); in assay [16], 59.8 µM (inactive); in [17] it was 63.4 µM (inactive); in assay [18], 27.9 µM (inactive).
